Source: PubChem BioAssay AID248 (DTP/NCI, 2004)
Where “and” joins values, the source holds several entries; their conditions need not be identical. Equal entries are not always repeated. Toxic doses and inconclusive results are not listed. Cut-off read from the data, not from the text of the source: active = T/C of 150% or more; inactive = T/C below 125%.

Test system: L1210 leukemia ip in BDF1 mice, survival T/C
Experiment: NCI In Vivo Anticancer Drug Screen. Data for tumor model L1210 Leukemia (intraperitoneal) in B6D2F1 (BDF1) mice
Conditions: higher = longer survival
Procedure, shortened: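 Ratio derived from survival: compound-dosed mice over vehicle-dosed mice, all bearing a transplantable tumor.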

Measured: T/C

O=C1OC(C(O)CO)C(O)=C1O (configuration not stated)
inactive: endpoint: mean survival time, dose: 0.05 mg/kg/injection, schedule: Q01DX005 (iv), vehicle: saline 98 % of control | endpoint: mean survival time, dose: 0.05 mg/kg/injection, schedule: Q01DX009 (oral), vehicle: saline 102 % of control | endpoint: mean survival time, dose: 0.1 mg/kg/injection, schedule: Q01DX005 (iv), vehicle: saline 97 % of control | endpoint: mean survival time, dose: 0.1 mg/kg/injection, schedule: Q01DX009 (ip), vehicle: saline 95 % of control | endpoint: mean survival time, dose: 0.1 mg/kg/injection, schedule: Q01DX009 (oral), vehicle: saline 98 % of control | endpoint: mean survival time, dose: 0.1 mg/kg/injection, schedule: Q01DX009 (sc), vehicle: saline 98 % of control | endpoint: mean survival time, dose: 0.12 mg/kg/injection, schedule: Q01DX009 (ip), vehicle: saline 100 % of control | endpoint: mean survival time, dose: 0.13 mg/kg/injection, schedule: Q01DX009 (ip), vehicle: saline 100 % of control | endpoint: mean survival time, dose: 0.2 mg/kg/injection, schedule: Q01DX005 (iv), vehicle: saline 102 % of control | endpoint: mean survival time, dose: 0.2 mg/kg/injection, schedule: Q01DX009 (im), vehicle: saline 98 % of control | endpoint: mean survival time, dose: 0.2 mg/kg/injection, schedule: Q01DX009 (ip), vehicle: saline 101 % of control | endpoint: mean survival time, dose: 0.39 mg/kg/injection, schedule: Q01DX005 (iv), vehicle: saline 95 % of control | endpoint: mean survival time, dose: 0.39 mg/kg/injection, schedule: Q01DX009 (im), vehicle: saline 95 % of control | endpoint: mean survival time, dose: 0.39 mg/kg/injection, schedule: Q01DX009 (ip), vehicle: saline 95 % of control | endpoint: mean survival time, dose: 0.39 mg/kg/injection, schedule: Q01DX009 (oral), vehicle: saline 98 % of control | endpoint: mean survival time, dose: 0.5 mg/kg/injection, schedule: Q01DX001 (ip), vehicle: saline 97 % of control | endpoint: mean survival time, dose: 0.5 mg/kg/injection, schedule: Q01DX009 (ip), vehicle: saline 96 % of control and 101 % of control | endpoint: mean survival time, dose: 0.78 mg/kg/injection, schedule: Q01DX005 (iv), vehicle: saline 98 % of control | endpoint: mean survival time, dose: 0.78 mg/kg/injection, schedule: Q01DX009 (im), vehicle: saline 93 % of control | endpoint: mean survival time, dose: 0.78 mg/kg/injection, schedule: Q01DX009 (ip), vehicle: saline 102 % of control | endpoint: mean survival time, dose: 0.78 mg/kg/injection, schedule: Q01DX009 (oral), vehicle: saline 99 % of control | endpoint: mean survival time, dose: 1.0 mg/kg/injection, schedule: Q01DX001 (ip), vehicle: saline 100 % of control and 101 % of control | endpoint: mean survival time, dose: 1.0 mg/kg/injection, schedule: Q01DX009 (ip), vehicle: saline 95 % of control and 101 % of control | endpoint: mean survival time, dose: 1.56 mg/kg/injection, schedule: Q01DX005 (iv), vehicle: saline 98 % of control | endpoint: mean survival time, dose: 1.56 mg/kg/injection, schedule: Q01DX009 (im), vehicle: saline 100 % of control | endpoint: mean survival time, dose: 1.56 mg/kg/injection, schedule: Q01DX009 (ip), vehicle: saline 93 % of control | endpoint: mean survival time, dose: 1.56 mg/kg/injection, schedule: Q01DX009 (oral), vehicle: saline 94 % of control | endpoint: mean survival time, dose: 2.0 mg/kg/injection, schedule: Q01DX001 (ip), vehicle: saline 101 % of control and 103 % of control | endpoint: mean survival time, dose: 2.0 mg/kg/injection, schedule: Q01DX009 (ip), vehicle: saline 95 % of control and 97 % of control | endpoint: mean survival time, dose: 3.12 mg/kg/injection, schedule: Q01DX005 (iv), vehicle: saline 95 % of control | endpoint: mean survival time, dose: 3.12 mg/kg/injection, schedule: Q01DX009 (im), vehicle: saline 95 % of control | endpoint: mean survival time, dose: 3.12 mg/kg/injection, schedule: Q01DX009 (oral), vehicle: saline 93 % of control | endpoint: mean survival time, dose: 3.12 mg/kg/injection, schedule: Q01DX009 (sc), vehicle: saline 96 % of control | endpoint: mean survival time, dose: 4.0 mg/kg/injection, schedule: Q01DX001 (ip), vehicle: saline 101 % of control and 104 % of control | endpoint: mean survival time, dose: 4.0 mg/kg/injection, schedule: Q01DX009 (ip), vehicle: saline 94 % of control and 101 % of control | endpoint: mean survival time, dose: 6.25 mg/kg/injection, schedule: Q01DX009 (im), vehicle: saline 98 % of control | endpoint: mean survival time, dose: 6.25 mg/kg/injection, schedule: Q01DX009 (ip), vehicle: saline 95 % of control | endpoint: mean survival time, dose: 6.25 mg/kg/injection, schedule: Q01DX009 (oral), vehicle: saline 98 % of control | endpoint: mean survival time, dose: 6.25 mg/kg/injection, schedule: Q01DX009 (sc), vehicle: saline 102 % of control | endpoint: mean survival time, dose: 8.0 mg/kg/injection, schedule: Q01DX001 (ip), vehicle: saline 100 % of control | endpoint: mean survival time, dose: 8.0 mg/kg/injection, schedule: Q01DX009 (ip), vehicle: saline 95 % of control and 97 % of control | endpoint: mean survival time, dose: 12.5 mg/kg/injection, schedule: Q01DX009 (im), vehicle: saline 100 % of control | endpoint: mean survival time, dose: 12.5 mg/kg/injection, schedule: Q01DX009 (ip), vehicle: saline 102 % of control | endpoint: mean survival time, dose: 12.5 mg/kg/injection, schedule: Q01DX009 (oral), vehicle: saline 100 % of control | endpoint: mean survival time, dose: 12.5 mg/kg/injection, schedule: Q01DX009 (sc), vehicle: saline 94 % of control | endpoint: mean survival time, dose: 16.0 mg/kg/injection, schedule: Q01DX001 (ip), vehicle: saline 94 % of control | endpoint: mean survival time, dose: 16.0 mg/kg/injection, schedule: Q01DX009 (ip), vehicle: saline 101 % of control | endpoint: mean survival time, dose: 25.0 mg/kg/injection, schedule: Q01DX009 (ip), vehicle: saline 95 % of control | endpoint: mean survival time, dose: 25.0 mg/kg/injection, schedule: Q01DX009 (sc), vehicle: saline 102 % of control | endpoint: mean survival time, dose: 32.0 mg/kg/injection, schedule: Q01DX001 (ip), vehicle: saline 97 % of control | endpoint: mean survival time, dose: 32.0 mg/kg/injection, schedule: Q01DX009 (ip), vehicle: saline 103 % of control | endpoint: mean survival time, dose: 37.5 mg/kg/injection, schedule: Q01DX009 (ip), vehicle: saline 98 % of control | endpoint: mean survival time, dose: 50.0 mg/kg/injection, schedule: Q01DX005 (iv), vehicle: saline 102 % of control | endpoint: mean survival time, dose: 50.0 mg/kg/injection, schedule: Q01DX009 (im), vehicle: saline 96 % of control | endpoint: mean survival time, dose: 50.0 mg/kg/injection, schedule: Q01DX009 (ip), vehicle: saline 96 % of control | endpoint: mean survival time, dose: 50.0 mg/kg/injection, schedule: Q01DX009 (oral), vehicle: saline 100 % of control | endpoint: mean survival time, dose: 64.0 mg/kg/injection, schedule: Q01DX001 (ip), vehicle: saline 97 % of control and 101 % of control | endpoint: mean survival time, dose: 100.0 mg/kg/injection, schedule: Q01DX001 (ip), vehicle: saline 96 % of control | endpoint: mean survival time, dose: 100.0 mg/kg/injection, schedule: Q01DX005 (iv), vehicle: saline 97 % of control | endpoint: mean survival time, dose: 100.0 mg/kg/injection, schedule: Q01DX009 (im), vehicle: saline 96 % of control | endpoint: mean survival time, dose: 100.0 mg/kg/injection, schedule: Q01DX009 (ip), vehicle: saline 93 % of control and 98 % of control | endpoint: mean survival time, dose: 100.0 mg/kg/injection, schedule: Q01DX009 (oral), vehicle: saline 103 % of control | endpoint: mean survival time, dose: 100.0 mg/kg/injection, schedule: Q04DX003 (ip), vehicle: saline 96 % of control | endpoint: mean survival time, dose: 150.0 mg/kg/injection, schedule: Q03HX024 (ip), vehicle: saline 93 % of control | endpoint: mean survival time, dose: 200.0 mg/kg/injection, schedule: Q01DX001 (ip), vehicle: saline 104 % of control | endpoint: mean survival time, dose: 200.0 mg/kg/injection, schedule: Q01DX005 (iv), vehicle: saline 102 % of control | endpoint: mean survival time, dose: 200.0 mg/kg/injection, schedule: Q01DX009 (im), vehicle: saline 98 % of control | endpoint: mean survival time, dose: 200.0 mg/kg/injection, schedule: Q01DX009 (ip), vehicle: saline 101 % of control | endpoint: mean survival time, dose: 200.0 mg/kg/injection, schedule: Q01DX009 (oral), vehicle: saline 96 % of control | endpoint: mean survival time, dose: 300.0 mg/kg/injection, schedule: Q01DX009 (ip), vehicle: saline 97 % of control | endpoint: mean survival time, dose: 400.0 mg/kg/injection, schedule: Q01DX001 (ip), vehicle: saline 93 % of control | endpoint: mean survival time, dose: 400.0 mg/kg/injection, schedule: Q01DX005 (iv), vehicle: saline 101 % of control | endpoint: mean survival time, dose: 400.0 mg/kg/injection, schedule: Q01DX009 (im), vehicle: saline 102 % of control | endpoint: mean survival time, dose: 400.0 mg/kg/injection, schedule: Q01DX009 (ip), vehicle: saline 93 % of control and 95 % of control and 102 % of control | endpoint: mean survival time, dose: 400.0 mg/kg/injection, schedule: Q01DX009 (oral), vehicle: saline 98 % of control | endpoint: mean survival time, dose: 800.0 mg/kg/injection, schedule: Q01DX001 (ip), vehicle: saline 94 % of control | endpoint: mean survival time, dose: 800.0 mg/kg/injection, schedule: Q01DX005 (iv), vehicle: saline 98 % of control | endpoint: mean survival time, dose: 800.0 mg/kg/injection, schedule: Q01DX009 (im), vehicle: saline 93 % of control | endpoint: mean survival time, dose: 800.0 mg/kg/injection, schedule: Q01DX009 (oral), vehicle: saline 94 % of control | endpoint: mean survival time, dose: 1200.0 mg/kg/injection, schedule: Q01DX001 (ip), vehicle: saline 100 % of control | endpoint: mean survival time, dose: 1600.0 mg/kg/injection, schedule: Q01DX001 (ip), vehicle: saline 100 % of control | endpoint: mean survival time, dose: 1600.0 mg/kg/injection, schedule: Q01DX009 (im), vehicle: saline 98 % of control | endpoint: mean survival time, dose: 1600.0 mg/kg/injection, schedule: Q01DX009 (oral), vehicle: saline 96 % of control | endpoint: median survival time, dose: 500.0 mg/kg/injection, schedule: Q01DX001 (oral), vehicle: water 100 % of control | endpoint: median survival time, dose: 1000.0 mg/kg/injection, schedule: Q01DX001 (oral), vehicle: water 100 % of control | endpoint: median survival time, dose: 1500.0 mg/kg/injection, schedule: Q01DX001 (oral), vehicle: water 94 % of control | endpoint: median survival time, dose: 3000.0 mg/kg/injection, schedule: Q01DX001 (oral), vehicle: water 100 % of control
